# Test results as given in patent US12077503B2, “Substituted cyclic amides and their use as herbicides” (FMC CORPORATION, priority 2015, dated 2024).
# Columns and labels:
# Type in all cases: in vivo
# [1] = test system: Kochia (Kochia scoparia); experiment: Test A preemergence; conditions: Bassia scoparia, pre-emergence, 240 h, preemergence, 0 to 100 scale where 0 is no effect and 100 is complete control, read-out: Kochia plant response rating
# Outline: (§1)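 In a loam soil and sand blend, planted seeds got a preemergence directed soil spray, and young plants at the one- to two-leaf stage, 2–10 cm high, got a postemergence application; ~10 d greenhouse hold; injury rated visually, 0 = none, 100 = complete control.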
# [2] = test system: pigweed (Amaranthus retroflexus); experiment: Test A preemergence; conditions: Amaranthus retroflexus, pre-emergence, 240 h, preemergence, 0 to 100 scale where 0 is no effect and 100 is complete control, read-out: Pigweed plant response rating
# [3] = test system: ryegrass, Italian (Italian ryegrass, Lolium multiflorum); experiment: Test A preemergence; conditions: Lolium multiflorum, pre-emergence, 240 h, preemergence, 0 to 100 scale where 0 is no effect and 100 is complete control, read-out: Ryegrass, Italian plant response rating
# Outline: as §1
# [4] = test system: ragweed (common ragweed, Ambrosia elatior); experiment: Test A preemergence; conditions: Ambrosia artemisiifolia, pre-emergence, 240 h, preemergence, 0 to 100 scale where 0 is no effect and 100 is complete control, read-out: Ragweed plant response rating
# Outline: as §1
# [5] = test system: barnyardgrass (Echinochloa crus-galli); experiment: Test A preemergence; conditions: Echinochloa crus-galli, pre-emergence, 240 h, preemergence, 0 to 100 scale where 0 is no effect and 100 is complete control, read-out: Barnyardgrass plant response rating
# Outline: as §1
# [6] = test system: giant foxtail (Setaria faberii); experiment: Test A preemergence; conditions: Setaria faberi, pre-emergence, 240 h, preemergence, 0 to 100 scale where 0 is no effect and 100 is complete control, read-out: Foxtail, Giant plant response rating
# Outline: as §1
# [7] = test system: wheat (Triticum aestivum); experiment: Test A postemergence; conditions: Triticum aestivum, post-emergence, 240 h, postemergence
# Outline: as §1
# [8] = test system: Kochia (Kochia scoparia); experiment: Test A postemergence; conditions: Bassia scoparia, post-emergence, 240 h, postemergence
# Outline: as §1
# [9] = test system: corn (Zea mays); experiment: Test A postemergence; conditions: Zea mays, post-emergence, 240 h, postemergence
# Outline: as §1
# [10] = test system: pigweed (Amaranthus retroflexus); experiment: Test A postemergence; conditions: Amaranthus retroflexus, post-emergence, 240 h, postemergence
# Outline: as §1
# [11] = test system: Galium (catchweed bedstraw, Galium aparine); experiment: Test A postemergence; conditions: Galium, post-emergence, 240 h, postemergence
# Outline: as §1
# [12] = test system: ryegrass, Italian (Italian ryegrass, Lolium multiflorum); experiment: Test A postemergence; conditions: Lolium multiflorum, post-emergence, 240 h, postemergence
# Outline: as §1
# [13] = test system: ragweed (common ragweed, Ambrosia elatior); experiment: Test A postemergence; conditions: Ambrosia artemisiifolia, post-emergence, 240 h, postemergence
# Outline: as §1
# [14] = test system: barnyardgrass (Echinochloa crus-galli); experiment: Test A postemergence; conditions: Echinochloa crus-galli, post-emergence, 240 h, postemergence
# Outline: as §1
# [15] = test system: giant foxtail (Setaria faberii); experiment: Test A postemergence; conditions: Setaria faberi, post-emergence, 240 h, postemergence
# Outline: as §1
# [16] = 125 g ai/ha, visual injury rating, approximately 10 d
smiles,measurement,setting,value
Cc1c(F)cccc1NC(=O)[C@H]1C(=O)N(C)C[C@@H]1c1ccc(OC(F)F)cc1 [Compound 1213],pest or weed control at 125 g/ha,[1]; [16],70%
same,pest or weed control at 500 g/ha,[1]; 500 g ai/ha,80%
same,pest or weed control at 125 g/ha,[2]; [16],50%
same,pest or weed control at 500 g/ha,[2]; 500 g ai/ha,80%
same,pest or weed control at 125 g/ha,[3]; [16],20%
same,pest or weed control at 500 g/ha,[3]; 500 g ai/ha,70%
same,pest or weed control at 125 g/ha,[4]; [16],50%
same,pest or weed control at 500 g/ha,[4]; 500 g ai/ha,70%
same,pest or weed control at 125 g/ha,[5]; [16],100%
same,pest or weed control at 500 g/ha,[5]; 500 g ai/ha,100%
same,pest or weed control at 125 g/ha,[6]; [16],100%
same,pest or weed control at 500 g/ha,[6]; 500 g ai/ha,100%
same,plant injury at 125 g/ha,"[7]; 125 g ai/ha, visual injury vs untreated controls after approx. 10 d, 0 = no effect, 100 = complete control, read-out: Wheat plant response rating (0 to 100 scale)",40%
same,plant injury at 500 g/ha,"[7]; 500 g ai/ha, 0 to 100 scale, 0 is no effect, 100 is complete control, read-out: Wheat plant response rating",50%
same,pest or weed control at 125 g/ha,"[8]; 125 g ai/ha, visual injury vs untreated controls after approx. 10 d, 0 = no effect, 100 = complete control, read-out: Kochia plant response rating (0 to 100 scale)",50%
same,pest or weed control at 500 g/ha,"[8]; 500 g ai/ha, 0 to 100 scale, 0 is no effect, 100 is complete control, read-out: Kochia plant response rating",60%
same,plant injury at 125 g/ha,"[9]; 125 g ai/ha, visual injury vs untreated controls after approx. 10 d, 0 = no effect, 100 = complete control, read-out: Corn plant response rating (0 to 100 scale)",50%
same,plant injury at 500 g/ha,"[9]; 500 g ai/ha, 0 to 100 scale, 0 is no effect, 100 is complete control, read-out: Corn plant response rating",80%
same,pest or weed control at 125 g/ha,"[10]; 125 g ai/ha, visual injury vs untreated controls after approx. 10 d, 0 = no effect, 100 = complete control, read-out: Pigweed plant response rating (0 to 100 scale)",0%
same,pest or weed control at 500 g/ha,"[10]; 500 g ai/ha, 0 to 100 scale, 0 is no effect, 100 is complete control, read-out: Pigweed plant response rating",0%
same,pest or weed control at 125 g/ha,"[11]; 125 g ai/ha, visual injury vs untreated controls after approx. 10 d, 0 = no effect, 100 = complete control, read-out: Galium plant response rating (0 to 100 scale)",50%
same,pest or weed control at 500 g/ha,"[11]; 500 g ai/ha, 0 to 100 scale, 0 is no effect, 100 is complete control, read-out: Galium plant response rating",60%
same,pest or weed control at 125 g/ha,"[12]; 125 g ai/ha, visual injury vs untreated controls after approx. 10 d, 0 = no effect, 100 = complete control, read-out: Ryegrass, Italian plant response rating (0 to 100 scale)",0%
same,pest or weed control at 500 g/ha,"[12]; 500 g ai/ha, 0 to 100 scale, 0 is no effect, 100 is complete control, read-out: Ryegrass, Italian plant response rating",50%
same,pest or weed control at 125 g/ha,"[13]; 125 g ai/ha, visual injury vs untreated controls after approx. 10 d, 0 = no effect, 100 = complete control, read-out: Ragweed plant response rating (0 to 100 scale)",0%
same,pest or weed control at 500 g/ha,"[13]; 500 g ai/ha, 0 to 100 scale, 0 is no effect, 100 is complete control, read-out: Ragweed plant response rating",0%
same,pest or weed control at 125 g/ha,"[14]; 125 g ai/ha, visual injury vs untreated controls after approx. 10 d, 0 = no effect, 100 = complete control, read-out: Barnyardgrass plant response rating (0 to 100 scale)",100%
same,pest or weed control at 500 g/ha,"[14]; 500 g ai/ha, 0 to 100 scale, 0 is no effect, 100 is complete control, read-out: Barnyardgrass plant response rating",100%
same,pest or weed control at 125 g/ha,"[15]; 125 g ai/ha, visual injury vs untreated controls after approx. 10 d, 0 = no effect, 100 = complete control, read-out: Foxtail, Giant plant response rating (0 to 100 scale)",90%
same,pest or weed control at 500 g/ha,"[15]; 500 g ai/ha, 0 to 100 scale, 0 is no effect, 100 is complete control, read-out: Foxtail, Giant plant response rating",90%
